Experiments:
[1] = target: T1, 5-hydroxytryptamine receptor 6 (Homo sapiens, UniProt P50406); test: Binding affinity against human 5-hydroxytryptamine 6 receptor stably transfected to HEK 293 human embryonic kidney cells using [3H]-lysergic acid diethylamide as radioligand; type: cell-based, HEK293
[2] = target: T1, 5-hydroxytryptamine receptor 6
[3] = Compound was evaluated for its binding affinity for human 5-hydroxytryptamine 3 receptor
[4] = target: 5-hydroxytryptamine receptor 2A (Rattus norvegicus, UniProt P14842); test: Compound was evaluated for its binding affinity for rat 5-hydroxytryptamine 2A receptor
[5] = target: 5-hydroxytryptamine receptor 1B (Homo sapiens, UniProt P28222); test: Compound was evaluated for its binding affinity for human 5-hydroxytryptamine 1B receptor
[6] = target: 5-hydroxytryptamine receptor 1E (Homo sapiens, UniProt P28566); test: Compound was evaluated for its binding affinity for human 5-hydroxytryptamine 1E receptor
[7] = target: T2, 5-hydroxytryptamine receptor 2C (Rattus norvegicus, UniProt P08909); test: Compound was evaluated for its binding affinity for rat 5-hydroxytryptamine 2C receptor
T2 sequence (P08909 whole entry): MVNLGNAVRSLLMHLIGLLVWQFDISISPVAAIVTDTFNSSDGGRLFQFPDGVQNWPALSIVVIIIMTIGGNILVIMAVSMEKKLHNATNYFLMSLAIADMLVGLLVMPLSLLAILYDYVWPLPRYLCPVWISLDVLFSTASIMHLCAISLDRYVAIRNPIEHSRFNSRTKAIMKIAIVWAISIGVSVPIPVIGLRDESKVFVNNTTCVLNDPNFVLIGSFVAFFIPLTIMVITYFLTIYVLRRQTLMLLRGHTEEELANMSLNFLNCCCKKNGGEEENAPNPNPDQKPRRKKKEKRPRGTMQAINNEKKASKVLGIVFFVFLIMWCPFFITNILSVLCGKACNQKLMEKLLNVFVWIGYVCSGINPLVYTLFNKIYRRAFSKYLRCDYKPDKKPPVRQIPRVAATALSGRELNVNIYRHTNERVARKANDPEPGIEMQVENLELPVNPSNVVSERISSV

[8] = target: 5-hydroxytryptamine receptor 7 (Homo sapiens, UniProt P34969); test: Compound was evaluated for its binding affinity for human 5-hydroxytryptamine 7 receptor
Sequence of 5-hydroxytryptamine receptor 7 (P34969 whole entry): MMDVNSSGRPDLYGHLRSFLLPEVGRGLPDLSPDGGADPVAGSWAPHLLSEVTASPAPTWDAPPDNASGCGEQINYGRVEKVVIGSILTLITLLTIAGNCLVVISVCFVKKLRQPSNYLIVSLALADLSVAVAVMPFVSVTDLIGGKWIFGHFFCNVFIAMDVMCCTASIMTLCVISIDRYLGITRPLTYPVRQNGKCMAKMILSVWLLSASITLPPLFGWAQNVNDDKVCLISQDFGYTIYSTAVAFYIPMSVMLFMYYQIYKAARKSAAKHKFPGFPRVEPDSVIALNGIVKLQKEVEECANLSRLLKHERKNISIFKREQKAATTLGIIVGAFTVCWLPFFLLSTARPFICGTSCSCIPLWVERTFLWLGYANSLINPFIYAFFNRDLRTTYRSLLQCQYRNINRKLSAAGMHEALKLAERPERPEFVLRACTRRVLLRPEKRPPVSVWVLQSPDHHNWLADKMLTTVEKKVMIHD

T1 sequence (P50406 whole entry): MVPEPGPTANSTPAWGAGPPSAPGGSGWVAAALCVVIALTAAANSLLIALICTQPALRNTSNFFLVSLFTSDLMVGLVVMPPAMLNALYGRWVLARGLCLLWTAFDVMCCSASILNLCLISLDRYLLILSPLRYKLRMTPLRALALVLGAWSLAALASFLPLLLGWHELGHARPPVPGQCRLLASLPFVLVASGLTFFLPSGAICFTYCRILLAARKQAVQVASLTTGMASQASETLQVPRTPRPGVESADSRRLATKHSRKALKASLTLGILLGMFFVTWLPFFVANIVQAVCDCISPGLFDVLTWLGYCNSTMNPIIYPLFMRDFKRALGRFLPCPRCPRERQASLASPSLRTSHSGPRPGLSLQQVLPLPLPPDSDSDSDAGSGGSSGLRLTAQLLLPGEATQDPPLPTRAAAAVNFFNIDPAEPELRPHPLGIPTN
Sequence of 5-hydroxytryptamine receptor 2A (P14842 whole entry): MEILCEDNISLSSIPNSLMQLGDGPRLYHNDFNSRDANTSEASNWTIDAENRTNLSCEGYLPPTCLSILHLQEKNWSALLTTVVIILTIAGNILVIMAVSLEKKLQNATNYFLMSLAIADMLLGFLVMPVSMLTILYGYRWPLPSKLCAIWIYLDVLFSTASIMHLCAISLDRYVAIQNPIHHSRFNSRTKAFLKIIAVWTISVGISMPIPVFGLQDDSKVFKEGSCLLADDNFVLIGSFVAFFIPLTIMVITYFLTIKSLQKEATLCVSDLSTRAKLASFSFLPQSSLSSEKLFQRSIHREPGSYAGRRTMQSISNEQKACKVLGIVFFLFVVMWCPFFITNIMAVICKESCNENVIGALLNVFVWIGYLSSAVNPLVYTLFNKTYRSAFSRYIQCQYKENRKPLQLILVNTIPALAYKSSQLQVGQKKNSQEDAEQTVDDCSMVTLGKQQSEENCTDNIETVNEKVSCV
Sequence of 5-hydroxytryptamine receptor 1E (P28566 whole entry): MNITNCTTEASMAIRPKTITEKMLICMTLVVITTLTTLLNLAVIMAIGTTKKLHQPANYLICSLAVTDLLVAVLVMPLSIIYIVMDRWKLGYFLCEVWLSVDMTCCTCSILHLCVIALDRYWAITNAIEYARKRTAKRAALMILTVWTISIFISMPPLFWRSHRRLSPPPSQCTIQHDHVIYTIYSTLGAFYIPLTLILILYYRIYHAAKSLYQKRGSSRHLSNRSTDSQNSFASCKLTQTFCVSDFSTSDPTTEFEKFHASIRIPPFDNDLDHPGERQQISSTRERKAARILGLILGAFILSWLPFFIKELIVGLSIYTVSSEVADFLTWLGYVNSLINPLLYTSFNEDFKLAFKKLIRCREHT
Sequence of 5-hydroxytryptamine receptor 1B (P28222 whole entry): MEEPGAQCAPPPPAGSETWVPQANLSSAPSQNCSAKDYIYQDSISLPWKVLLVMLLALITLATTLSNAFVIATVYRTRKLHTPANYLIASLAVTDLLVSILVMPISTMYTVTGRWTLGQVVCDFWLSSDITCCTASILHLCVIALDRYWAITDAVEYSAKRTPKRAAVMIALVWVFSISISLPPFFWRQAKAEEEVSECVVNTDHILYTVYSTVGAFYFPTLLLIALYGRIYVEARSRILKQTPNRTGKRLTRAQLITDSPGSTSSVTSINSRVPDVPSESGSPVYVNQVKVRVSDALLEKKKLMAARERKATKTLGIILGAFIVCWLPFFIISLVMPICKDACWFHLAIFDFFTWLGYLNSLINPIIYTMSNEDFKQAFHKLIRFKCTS

Row | Structure (SMILES) | Ki [1] [µM] | also measured
1 | COc1ccc(OC)c(S(=O)(=O)n2cc(CCN(C)C)c3ccc(OC)cc32)c1 | 0.0095 | –
2 | COc1ccc2c(c1)c(CCN(C)C)cn2S(=O)(=O)c1cccc2ccccc12 | 0.0009 | –
3 | COc1ccc2c(c1)c(CCN(C)C)cn2S(=O)(=O)c1ccccc1 | 0.0023 | pA2 [2]: 8.88; Ki [3]: 2.39 µM; Ki [4]: 0.13 µM; Ki [5]: 9.21 µM; Ki [6]: 4.22 µM; Ki [7]: 0.023 µM; Ki [8]: 0.6 µM
4 | COc1ccc2c(c1)c(CCN(C)C)cn2S(=O)(=O)c1ccc2ccccc2c1 | 0.0016 | –
5 | COc1cccc2c(CCN(C)C)cn(S(=O)(=O)c3ccc4ccccc4c3)c12 | 0.005 | –
6 | COc1ccc(S(=O)(=O)n2cc(CCN(C)C)c3cc(OC)ccc32)cc1 | 0.008 | –
7 | COc1ccc(OC)c(S(=O)(=O)n2cc(CCN(C)C)c3cccc(OC)c32)c1 | 0.183 | –
8 | COc1ccc(S(=O)(=O)n2cc(CCN(C)C)c3cccc(OC)c32)cc1 | 0.093 | –
9 | COc1cccc2c(CCN(C)C)cn(S(=O)(=O)c3ccc(Cl)cc3)c12 | 0.045 | –
10 | COc1ccc(OC)c(S(=O)(=O)n2cc(CCN(C)C)c3cc(OC)ccc32)c1 | 0.0013 | –
11 | COc1ccc2c(c1)c(CCN(C)C)cn2S(=O)(=O)c1ccc(Cl)cc1 | 0.0031 | –
12 | COc1ccc(OC)c(S(=O)(=O)n2cc(CCN(C)C)c3c(OC)cccc32)c1 | 0.0074 | –
